Reference: BindingDB's records for doi:10.1021/acschembio.5b00370 (University of Wisconsin-Madison, 2015)

Target: Probable UDP-galactopyranose mutase (Klebsiella pneumoniae, UniProt Q48481)
Experiment: Fluorescence Polarization Assay
Protocol: Polarization for the fluorescein-UDP conjugated probe in the presence of inhibitors was measured on a Tecan M1000 microplate reader, exciting with 470 nm light and monitoring emission at 525 nm. Each condition was tested in triplicate in the presence of 220 nM K. pneumoniae UGM and 23.3 nM of the probe.

Chain of Probable UDP-galactopyranose mutase (Q48481 whole entry): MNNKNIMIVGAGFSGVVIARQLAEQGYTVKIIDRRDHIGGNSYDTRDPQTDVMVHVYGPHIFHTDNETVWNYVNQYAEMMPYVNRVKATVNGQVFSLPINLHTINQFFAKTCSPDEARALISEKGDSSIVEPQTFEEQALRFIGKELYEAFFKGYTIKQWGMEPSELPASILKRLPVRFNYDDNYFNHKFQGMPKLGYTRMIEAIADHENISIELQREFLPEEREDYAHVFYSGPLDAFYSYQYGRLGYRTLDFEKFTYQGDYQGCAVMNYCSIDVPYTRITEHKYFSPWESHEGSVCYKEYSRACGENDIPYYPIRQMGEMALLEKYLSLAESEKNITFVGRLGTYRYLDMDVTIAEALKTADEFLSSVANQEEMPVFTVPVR

| Compound | Kd |
| --- | --- |
| O=C(O)CC1Sc2nnc(-c3ccco3)n2N=C1c1ccccc1 (configuration not stated) [2‐[3‐(Furan‐2‐yl)‐6‐phenyl‐7H‐[1,2,4]triazolo[3,4‐b][1,3,4]thiadiazin‐7‐yl]acetate (6)] | 43 µM |
| C=CCNc1nc(-c2cc(C)n(CCC(=O)O)c2C)cs1 [3‐{2,5‐Dimethyl‐3‐[2‐(prop‐2‐en‐1‐ylamino)‐1,3‐thiazol‐4‐yl]pyrrol‐1‐yl}propanoate (10)] | 6 µM |
